Test results: ChEMBL document CHEMBL1201862, “PubChem BioAssay data set” (2004)
Calls of active or inactive are those of the source.

Key:
[1] = Vero E6 cell cytotoxicity, dose response, cytotoxicity control for non-replicating M. tuberculosis project, secondary assay (AID 492998); assay type: functional, VeroE6; conditions: Vero C1008
[2] = HepG2 cell cytotoxicity, dose response, cytotoxicity control for non-replicating M. tuberculosis project (AID 489018); assay type: functional; conditions: Mycobacterium tuberculosis
[3] = biological target: T1, Nucleotide-binding oligomerization domain-containing protein 1 (Homo sapiens, UniProt Q9Y239); assay: blockers of NOD1 pathway activity – revised, SAR follow-up (AID 2333); assay type: functional
T1 sequence (Q9Y239 whole entry): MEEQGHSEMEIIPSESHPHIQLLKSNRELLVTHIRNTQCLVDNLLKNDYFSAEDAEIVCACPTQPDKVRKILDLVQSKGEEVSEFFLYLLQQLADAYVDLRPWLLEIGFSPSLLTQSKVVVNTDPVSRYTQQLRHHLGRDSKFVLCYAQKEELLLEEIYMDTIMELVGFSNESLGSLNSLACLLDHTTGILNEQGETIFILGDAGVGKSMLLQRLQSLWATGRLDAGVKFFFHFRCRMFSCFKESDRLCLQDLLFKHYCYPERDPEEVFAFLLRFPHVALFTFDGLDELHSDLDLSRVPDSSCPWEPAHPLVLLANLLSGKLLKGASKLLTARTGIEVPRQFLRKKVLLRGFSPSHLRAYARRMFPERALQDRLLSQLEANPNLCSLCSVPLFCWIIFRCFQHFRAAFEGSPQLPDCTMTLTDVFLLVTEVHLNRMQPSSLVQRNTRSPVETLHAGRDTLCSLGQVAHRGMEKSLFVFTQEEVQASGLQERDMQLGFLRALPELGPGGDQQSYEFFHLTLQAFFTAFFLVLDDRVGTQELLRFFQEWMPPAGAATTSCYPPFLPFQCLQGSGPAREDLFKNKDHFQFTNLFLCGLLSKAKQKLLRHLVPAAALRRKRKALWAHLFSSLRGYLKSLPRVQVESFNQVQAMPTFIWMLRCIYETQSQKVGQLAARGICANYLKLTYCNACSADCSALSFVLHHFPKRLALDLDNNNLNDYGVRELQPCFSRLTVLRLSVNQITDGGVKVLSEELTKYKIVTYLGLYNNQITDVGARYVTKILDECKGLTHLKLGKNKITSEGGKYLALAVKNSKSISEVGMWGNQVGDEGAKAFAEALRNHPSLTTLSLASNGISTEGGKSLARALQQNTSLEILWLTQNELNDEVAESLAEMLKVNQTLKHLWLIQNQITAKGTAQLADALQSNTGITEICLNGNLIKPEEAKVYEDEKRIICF

[4] = reduction of Shn3 3'UTR-driven luciferase in osteoblasts – cell-based, Clone20 osteoblasts, firefly luciferase, cherry-picked, dose response (AID 624132); assay type: functional;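 also: firefly luciferase luminescence from reporter carrying the Shn3 3'UTR in osteoblasts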
[5] = loss of viability in HepG2 cells – cell-based, CellTiter-Glo, cherry-picked, cytotoxicity control for Shn3 inhibitor project, dose response (AID 624134); assay type: functional
[6] = non-specific 3'UTR reporter inhibition in Clone20-Shn3RL – cell-based, Renilla luciferase, cherry-picked, counter-screen for Shn3 inhibitor project, dose response (AID 624133); assay type: functional
[7] = tested on: HEK293; assay: cells; conditions: Homo sapiens
[8] = A Cell Based Secondary Assay To Explore Cytotoxicity of Compounds that Sensitize Mycobacterium Tuberculosis to Beta-Lactam Antibiotics.; assay type: functional
[9] = THP-1 cell cytotoxicity, dose response, cytotoxicity control for non-replicating M. tuberculosis project (AID 489025); assay type: functional
[10] = cells; assay type: functional
[11] = biological target: Tumor necrosis factor (Homo sapiens, UniProt P01375); assay: analog potency on TNFa NF-kB signaling – cell-based, revised, SAR follow-up (AID 2337); assay type: functional
Tumor necrosis factor, sequence (P01375 whole entry): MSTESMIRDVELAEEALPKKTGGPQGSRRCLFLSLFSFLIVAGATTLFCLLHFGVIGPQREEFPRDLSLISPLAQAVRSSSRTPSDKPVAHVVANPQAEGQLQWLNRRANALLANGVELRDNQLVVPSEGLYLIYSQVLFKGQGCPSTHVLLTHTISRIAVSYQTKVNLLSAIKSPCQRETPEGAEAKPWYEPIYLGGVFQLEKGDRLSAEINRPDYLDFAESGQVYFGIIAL

[12] = tested on: Streptococcus; assay: GAS UMAA2166 growth inhibition – luminescence, BacTiterGlo, counter-screen for streptokinase expression inhibitor project, dose response (AID 1915); assay type: functional, organism-based;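 also: potency for reduction of bacterial viability or growth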
[13] = biological target: T2, Microphthalmia-associated transcription factor (Homo sapiens, UniProt O75030); assay: reducers of TRPM1 reporter luminescence, concentration series – cell-based, SK-MEL-5, cherry-picked, set 3, MITF inhibitor project, dose response (AID 493073); assay type: functional;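 also: SK-MEL-5 melanoma cells with luciferase driven by the MITF target TRPM1 promoter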
T2 sequence (O75030 whole entry): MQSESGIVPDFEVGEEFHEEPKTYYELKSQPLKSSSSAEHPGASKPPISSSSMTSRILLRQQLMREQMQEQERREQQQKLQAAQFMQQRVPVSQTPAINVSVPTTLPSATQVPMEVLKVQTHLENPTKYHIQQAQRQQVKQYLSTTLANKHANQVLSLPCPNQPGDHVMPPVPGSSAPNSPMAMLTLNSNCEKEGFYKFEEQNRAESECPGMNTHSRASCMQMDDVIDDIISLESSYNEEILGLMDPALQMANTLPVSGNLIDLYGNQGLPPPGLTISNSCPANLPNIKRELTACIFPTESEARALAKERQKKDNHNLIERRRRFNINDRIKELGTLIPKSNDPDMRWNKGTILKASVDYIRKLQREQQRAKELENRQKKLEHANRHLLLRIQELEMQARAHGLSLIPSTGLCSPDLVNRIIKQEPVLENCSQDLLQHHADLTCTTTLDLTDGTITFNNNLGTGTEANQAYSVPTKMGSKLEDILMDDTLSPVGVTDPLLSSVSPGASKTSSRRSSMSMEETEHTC

[14] = tested on: Streptococcus sp. 'group A'; assay: Streptococcus pyogenes SK(-)GAS viability under kanamycin – luminescence, BacTiterGlo, confirmation, counter-screen for streptokinase expression inhibitor project, dose response (AID 1900); assay type: functional, organism-based
[15] = biological target: T3, Mannose-6-phosphate isomerase (Homo sapiens, UniProt P34949); assay: phosphomannose isomerase inhibition – biochemical, fluorescence intensity, confirmation (AID 1535)
T3 sequence (P34949 whole entry): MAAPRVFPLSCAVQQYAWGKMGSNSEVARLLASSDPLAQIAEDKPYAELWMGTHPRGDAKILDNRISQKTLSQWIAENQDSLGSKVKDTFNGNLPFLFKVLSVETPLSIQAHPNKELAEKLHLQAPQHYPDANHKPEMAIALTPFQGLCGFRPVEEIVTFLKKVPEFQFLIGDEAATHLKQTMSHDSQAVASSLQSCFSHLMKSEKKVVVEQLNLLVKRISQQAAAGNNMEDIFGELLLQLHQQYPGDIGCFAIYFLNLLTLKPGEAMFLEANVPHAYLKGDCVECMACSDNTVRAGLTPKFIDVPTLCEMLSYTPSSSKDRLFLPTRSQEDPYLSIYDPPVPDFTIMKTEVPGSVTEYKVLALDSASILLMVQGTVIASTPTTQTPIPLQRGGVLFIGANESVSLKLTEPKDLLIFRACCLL

[16] = biological target: Phosphomannomutase 2 (Homo sapiens, UniProt O15305); assay: Counter screen SAR assay for PMM2 inhibitors via a fluorescence intensity assay. [Related pubchem assays (depositor defined):AID1545, AID1574]
Phosphomannomutase 2, sequence (O15305 whole entry): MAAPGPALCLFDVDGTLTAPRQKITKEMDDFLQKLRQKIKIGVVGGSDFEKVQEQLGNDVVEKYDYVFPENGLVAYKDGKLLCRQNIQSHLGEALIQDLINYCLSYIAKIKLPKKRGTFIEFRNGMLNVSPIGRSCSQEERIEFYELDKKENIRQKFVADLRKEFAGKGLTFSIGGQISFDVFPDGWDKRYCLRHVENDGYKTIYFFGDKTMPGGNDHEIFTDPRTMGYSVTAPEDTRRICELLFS

[17] = biological target: Cytochrome P450 2D6 (Homo sapiens, UniProt P10635);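 also: CYP2D6 member of a cytochrome P450 panel assay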
Cytochrome P450 2D6, sequence (P10635 whole entry): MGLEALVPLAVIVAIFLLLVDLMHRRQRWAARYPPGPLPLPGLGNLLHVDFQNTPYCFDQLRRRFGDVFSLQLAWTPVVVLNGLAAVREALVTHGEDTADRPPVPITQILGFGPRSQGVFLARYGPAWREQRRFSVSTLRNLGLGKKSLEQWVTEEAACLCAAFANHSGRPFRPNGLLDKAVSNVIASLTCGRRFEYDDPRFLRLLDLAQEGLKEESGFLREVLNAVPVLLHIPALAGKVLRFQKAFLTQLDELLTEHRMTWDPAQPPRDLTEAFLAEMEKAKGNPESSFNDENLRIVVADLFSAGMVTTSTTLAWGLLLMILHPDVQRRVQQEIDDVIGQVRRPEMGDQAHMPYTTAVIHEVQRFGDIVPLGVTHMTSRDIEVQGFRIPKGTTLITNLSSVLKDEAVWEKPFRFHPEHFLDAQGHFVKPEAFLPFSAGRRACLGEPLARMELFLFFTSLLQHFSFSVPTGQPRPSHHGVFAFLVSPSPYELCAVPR

[18] = biological target: T4, Voltage-gated N-type calcium channel alpha-1B subunit/Amyloid beta A4 precursor protein-binding family A member 1 (Homo sapiens, UniProt Q00975+Q02410); assay type: protein assay
T4 sequence (Q00975 whole entry): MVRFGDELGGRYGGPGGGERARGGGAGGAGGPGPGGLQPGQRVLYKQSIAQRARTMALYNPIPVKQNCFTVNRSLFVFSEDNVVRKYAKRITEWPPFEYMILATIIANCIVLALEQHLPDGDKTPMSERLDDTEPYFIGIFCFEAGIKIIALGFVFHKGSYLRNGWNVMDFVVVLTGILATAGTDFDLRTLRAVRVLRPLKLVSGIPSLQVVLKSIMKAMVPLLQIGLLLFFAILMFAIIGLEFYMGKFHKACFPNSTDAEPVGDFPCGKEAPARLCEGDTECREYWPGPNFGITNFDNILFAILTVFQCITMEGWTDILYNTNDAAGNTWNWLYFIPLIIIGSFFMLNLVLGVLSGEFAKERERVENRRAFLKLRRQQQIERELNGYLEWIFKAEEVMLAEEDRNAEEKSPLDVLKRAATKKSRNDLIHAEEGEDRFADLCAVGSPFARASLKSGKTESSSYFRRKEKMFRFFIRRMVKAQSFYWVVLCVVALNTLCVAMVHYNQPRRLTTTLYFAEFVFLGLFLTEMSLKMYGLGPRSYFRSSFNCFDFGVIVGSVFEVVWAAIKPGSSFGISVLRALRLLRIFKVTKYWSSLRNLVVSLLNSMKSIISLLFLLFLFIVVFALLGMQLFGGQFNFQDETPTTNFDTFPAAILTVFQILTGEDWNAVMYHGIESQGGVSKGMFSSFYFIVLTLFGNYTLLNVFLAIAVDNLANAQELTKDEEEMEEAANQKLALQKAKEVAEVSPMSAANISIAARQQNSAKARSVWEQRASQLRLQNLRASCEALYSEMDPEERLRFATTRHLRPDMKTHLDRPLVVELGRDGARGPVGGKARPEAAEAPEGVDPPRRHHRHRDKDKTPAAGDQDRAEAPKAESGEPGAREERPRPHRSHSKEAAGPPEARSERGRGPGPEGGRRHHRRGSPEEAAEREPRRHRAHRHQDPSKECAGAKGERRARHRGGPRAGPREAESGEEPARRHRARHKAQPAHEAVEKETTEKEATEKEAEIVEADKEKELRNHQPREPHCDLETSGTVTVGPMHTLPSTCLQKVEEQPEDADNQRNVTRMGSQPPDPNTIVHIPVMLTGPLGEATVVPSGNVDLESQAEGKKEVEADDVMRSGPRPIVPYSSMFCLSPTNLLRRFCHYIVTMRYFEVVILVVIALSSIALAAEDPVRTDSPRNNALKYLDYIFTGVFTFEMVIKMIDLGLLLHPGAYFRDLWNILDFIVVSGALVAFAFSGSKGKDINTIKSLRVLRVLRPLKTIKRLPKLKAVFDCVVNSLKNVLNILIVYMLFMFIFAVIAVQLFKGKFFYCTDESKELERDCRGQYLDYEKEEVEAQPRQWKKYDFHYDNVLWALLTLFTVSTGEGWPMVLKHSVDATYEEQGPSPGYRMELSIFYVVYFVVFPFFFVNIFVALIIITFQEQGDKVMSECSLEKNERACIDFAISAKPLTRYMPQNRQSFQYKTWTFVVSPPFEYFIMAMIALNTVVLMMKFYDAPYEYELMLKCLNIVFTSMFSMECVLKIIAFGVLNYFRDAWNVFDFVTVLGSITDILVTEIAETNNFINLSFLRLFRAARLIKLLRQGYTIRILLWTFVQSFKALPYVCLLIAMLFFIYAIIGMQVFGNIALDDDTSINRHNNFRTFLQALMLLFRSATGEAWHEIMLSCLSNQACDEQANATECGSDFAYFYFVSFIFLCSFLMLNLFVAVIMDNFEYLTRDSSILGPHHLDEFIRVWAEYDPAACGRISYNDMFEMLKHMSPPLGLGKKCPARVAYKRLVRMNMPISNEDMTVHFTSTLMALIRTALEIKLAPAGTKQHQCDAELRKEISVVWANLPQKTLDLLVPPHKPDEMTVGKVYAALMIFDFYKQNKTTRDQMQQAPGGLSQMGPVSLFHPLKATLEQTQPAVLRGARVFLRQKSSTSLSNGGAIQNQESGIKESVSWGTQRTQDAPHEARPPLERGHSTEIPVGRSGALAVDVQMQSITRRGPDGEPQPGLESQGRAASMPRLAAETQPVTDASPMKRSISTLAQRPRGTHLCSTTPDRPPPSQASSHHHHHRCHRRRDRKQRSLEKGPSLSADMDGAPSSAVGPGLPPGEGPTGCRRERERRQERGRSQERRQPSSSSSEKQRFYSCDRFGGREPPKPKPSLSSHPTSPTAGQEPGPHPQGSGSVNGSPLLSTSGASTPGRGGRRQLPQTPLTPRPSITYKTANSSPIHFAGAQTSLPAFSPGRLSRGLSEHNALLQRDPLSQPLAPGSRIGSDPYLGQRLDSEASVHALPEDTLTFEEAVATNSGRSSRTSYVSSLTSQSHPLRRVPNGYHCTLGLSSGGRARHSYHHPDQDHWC
T4 sequence (Q02410 whole entry): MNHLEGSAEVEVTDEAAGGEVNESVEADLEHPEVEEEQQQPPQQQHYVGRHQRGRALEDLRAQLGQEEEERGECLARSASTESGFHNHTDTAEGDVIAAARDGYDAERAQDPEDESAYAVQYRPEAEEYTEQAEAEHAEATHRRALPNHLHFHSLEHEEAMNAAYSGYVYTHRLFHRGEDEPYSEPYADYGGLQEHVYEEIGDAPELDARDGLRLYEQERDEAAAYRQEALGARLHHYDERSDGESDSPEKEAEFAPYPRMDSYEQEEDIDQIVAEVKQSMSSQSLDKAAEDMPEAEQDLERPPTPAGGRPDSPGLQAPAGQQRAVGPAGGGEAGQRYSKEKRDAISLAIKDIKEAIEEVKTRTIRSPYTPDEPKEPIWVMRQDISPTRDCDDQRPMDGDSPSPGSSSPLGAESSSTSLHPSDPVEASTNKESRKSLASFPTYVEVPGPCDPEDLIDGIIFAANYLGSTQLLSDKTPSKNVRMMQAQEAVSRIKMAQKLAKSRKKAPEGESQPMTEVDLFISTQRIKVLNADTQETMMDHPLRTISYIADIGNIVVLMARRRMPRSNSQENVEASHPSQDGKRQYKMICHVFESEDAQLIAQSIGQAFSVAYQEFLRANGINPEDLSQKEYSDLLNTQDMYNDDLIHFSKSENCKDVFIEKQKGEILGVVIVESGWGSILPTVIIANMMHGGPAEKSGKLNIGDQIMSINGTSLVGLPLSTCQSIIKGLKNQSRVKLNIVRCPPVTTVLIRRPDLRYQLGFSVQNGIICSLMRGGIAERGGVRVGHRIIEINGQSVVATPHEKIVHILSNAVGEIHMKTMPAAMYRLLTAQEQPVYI

[19] = biological target: T4, Voltage-gated N-type calcium channel alpha-1B subunit/Amyloid beta A4 precursor protein-binding family A member 1; assay: disruptors of Mint-PDZ/N-type channel peptide interaction – biochemical, HTRF, set 2, SAR follow-up (AID 434980); assay type: functional
[20] = biological target: T4, Voltage-gated N-type calcium channel alpha-1B subunit/Amyloid beta A4 precursor protein-binding family A member 1; assay type: protein assay; remark: listed apart in the source
[21] = biological target: Eukaryotic translation initiation factor 4E (Mus musculus, UniProt P63073); assay: blockers of eIF4G binding by eIF4E – biochemical, TR-FRET, dose response (AID 855); assay type: functional;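 also: potency for disrupting eIF4E binding to eIF4GI seen as loss of FRET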
[22] = biological target: T4, Voltage-gated N-type calcium channel alpha-1B subunit/Amyloid beta A4 precursor protein-binding family A member 1; assay: disruptors of Mint-PDZ/N-type channel peptide interaction – biochemical, HTRF, SAR follow-up (AID 2489); assay type: functional
[23] = biological target: SUMO E1/E2 (Homo sapiens, UniProt P63279+Q9UBE0+Q9UBT2); assay: SAR analysis of SUMOylation using HTRF in an in-Vitro dose response assay. [Related pubchem assays (depositor defined):AID2006, AID2011, AID2018, AID2069, AID2658]; assay type: functional
[24] = biological target: Induced myeloid leukemia cell differentiation protein Mcl-1 (Homo sapiens, UniProt Q07820); assay type: functional
[25] = biological target: Kallikrein-7 (Homo sapiens, UniProt P49862); assay: Fluorescence Intensity-based biochemical primary high throughput dose response assay to identify activators of kallikrein-7 (K7) zymogen.
Kallikrein-7, sequence (P49862 whole entry, the tested form may be a part): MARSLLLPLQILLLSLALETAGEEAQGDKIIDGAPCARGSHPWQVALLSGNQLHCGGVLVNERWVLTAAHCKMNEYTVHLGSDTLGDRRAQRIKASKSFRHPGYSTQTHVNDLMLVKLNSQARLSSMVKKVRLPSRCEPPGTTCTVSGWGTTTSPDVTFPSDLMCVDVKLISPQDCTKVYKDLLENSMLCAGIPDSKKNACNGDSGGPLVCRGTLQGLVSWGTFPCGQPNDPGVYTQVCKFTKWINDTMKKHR

[26] = biological target: T5, Sentrin-specific protease 1 (Homo sapiens, UniProt Q9P0U3); assay: Dose response confirmation of small molecule inhibitors of the catalytic domain of the SUMO protease, SENP1 in a FRET assay.; assay type: functional; conditions: read-out: IC50_Mean
T5 sequence (Q9P0U3 whole entry): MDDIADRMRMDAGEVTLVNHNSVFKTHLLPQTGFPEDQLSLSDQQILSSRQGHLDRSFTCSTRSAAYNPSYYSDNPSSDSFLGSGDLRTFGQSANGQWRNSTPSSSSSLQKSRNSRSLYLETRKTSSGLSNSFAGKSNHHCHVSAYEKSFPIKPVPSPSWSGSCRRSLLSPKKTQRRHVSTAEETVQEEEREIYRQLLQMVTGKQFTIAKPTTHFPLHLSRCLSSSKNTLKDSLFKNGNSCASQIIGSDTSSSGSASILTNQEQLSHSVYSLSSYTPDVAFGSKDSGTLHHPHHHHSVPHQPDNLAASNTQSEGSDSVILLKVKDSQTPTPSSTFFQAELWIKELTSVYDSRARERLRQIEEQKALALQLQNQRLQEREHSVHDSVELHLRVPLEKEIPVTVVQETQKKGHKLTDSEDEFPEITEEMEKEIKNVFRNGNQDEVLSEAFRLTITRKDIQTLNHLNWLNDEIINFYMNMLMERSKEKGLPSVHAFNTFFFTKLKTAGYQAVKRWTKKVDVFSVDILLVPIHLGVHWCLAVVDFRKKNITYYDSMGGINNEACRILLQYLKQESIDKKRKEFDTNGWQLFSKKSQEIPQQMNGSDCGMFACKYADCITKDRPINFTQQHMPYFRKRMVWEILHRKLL

[27] = biological target: T5, Sentrin-specific protease 1; assay: SENP1 catalytic domain blockers, concentration series – biochemical, kinetic FRET, dose response (AID 651697); assay type: functional; conditions: read-out: IC50_Mean
[28] = biological target: Cytochrome P450 2C9 (Homo sapiens, UniProt P11712)
[29] = biological target: Cytochrome P450 2C19 (Homo sapiens, UniProt P33261); assay: Cytochrome panel assay with activity outcomes. Panel member name: p450-cyp2c19 Compounds with AC50 equal or less than 10 uM are considered active; assay type: functional; conditions: read-out: AC50
[30] = tested on: HEK293; assay: cells; conditions: Homo sapiens; remark: listed apart in the source
[31] = tested on: HEK293; assay: cells; conditions: Homo sapiens; remark: listed apart in the source
[32] = biological target: Glucose-6-phosphate 1-dehydrogenase (Homo sapiens, UniProt P11413); assay: inhibition of Homo sapiens G6PD, dose series – biochemical, fluorescence, selectivity assay for P. falciparum G6PD inhibitor project, dose response (AID 504792); assay type: functional
[33] = biological target: DNA dC->dU-editing enzyme APOBEC-3A (Homo sapiens, UniProt P31941); assay: A3A deaminase inhibition for selectivity – biochemical, dose response (AID 504722); assay type: functional
DNA dC->dU-editing enzyme APOBEC-3A, sequence (P31941 whole entry): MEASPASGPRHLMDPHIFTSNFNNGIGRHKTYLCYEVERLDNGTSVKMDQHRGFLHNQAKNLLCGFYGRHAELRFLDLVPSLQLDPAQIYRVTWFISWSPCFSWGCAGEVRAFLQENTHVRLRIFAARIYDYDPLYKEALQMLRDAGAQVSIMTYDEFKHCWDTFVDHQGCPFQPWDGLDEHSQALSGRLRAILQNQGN

[34] = biological target: DNA dC->dU-editing enzyme APOBEC-3G (Homo sapiens, UniProt Q9HC16); assay: Dose Response confirmation of small molecule APOBEC3G DNA Deaminase Inhibitors via a fluorescence-based single-stranded DNA deaminase assay. [Related pubchem assays (depositor defined):AID493012, AID493028]; assay type: functional
DNA dC->dU-editing enzyme APOBEC-3G, sequence (Q9HC16 whole entry): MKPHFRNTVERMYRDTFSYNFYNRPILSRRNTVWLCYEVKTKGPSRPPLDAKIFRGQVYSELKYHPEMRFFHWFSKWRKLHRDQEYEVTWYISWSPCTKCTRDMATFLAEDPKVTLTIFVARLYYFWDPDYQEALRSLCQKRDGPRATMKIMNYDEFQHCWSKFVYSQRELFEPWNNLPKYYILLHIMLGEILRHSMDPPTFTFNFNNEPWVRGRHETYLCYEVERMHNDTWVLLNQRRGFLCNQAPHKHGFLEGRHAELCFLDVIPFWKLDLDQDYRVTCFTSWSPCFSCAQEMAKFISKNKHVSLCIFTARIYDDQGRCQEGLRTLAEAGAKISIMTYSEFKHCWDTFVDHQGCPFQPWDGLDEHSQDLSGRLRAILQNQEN

[35] = biological target: T3, Mannose-6-phosphate isomerase; assay: MPI inhibition at elevated mannose 6-phosphate – biochemical, fluorescence intensity, high mannose 6-phosphate, primary screen (AID 1220)
[36] = biological target: T3, Mannose-6-phosphate isomerase; assay: MPI enzyme activity inhibition – biochemical, fluorescence intensity, coupled assay, primary screen (AID 1209)
[37] = biological target: Large T antigen (Simian virus 40, UniProt P03070); assay type: functional, Betapolyomavirus macacae;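 also: Confirmatory-stage PubChem screen for compounds that inhibit SV40 T antigen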

## CCCCCn1c(=O)c(C(=O)Nc2cnccn2)c(O)c2ccccc21
[1]
  CC50: 4.02 µM (active)
[2]
  CC50: 13.5 µM (active)
[3]
  IC50: 11.3 µM (active)
[4]
  AC50: 1.54 µM (active)
[5]
  AC50: > 70 µM (inactive)
[6]
  AC50: 3.1 µM (active)
[7]
  IC50: > 20 µM (inactive)
[8]
  CC50: 2.4 µM (active)
[9]
  CC50: 5.17 µM (active)
[10]
  IC50: 3.04 µM (active)
[11]
  IC50: > 20 µM (inactive)
[12]
  EC50: 5.32 µM (active)
[13]
  AC50: 5.93 µM (active)
[14]
  EC50: 3.24 µM (active)

## Cc1cc2n(n1)SC(Nc1ccccc1)N2 (stereo unspecified)
[15]
  IC50: > 50 µM (inactive)
[16]
  IC50: > 100 µM (inactive)

## N/C(CC/C(N)=N/O)=N\O
[17]
  AC50: inconclusive

## CCN(CC)C(=O)COC(=O)c1cc(-c2ccco2)nc2ccccc12
[18]
  IC50: 12.7 µM (active)
[19]
  IC50: 19.2 µM (active)
[20]
  IC50: 4.92 µM (active)
[21]
  IC50: 50 µM (inactive)
[22]
  IC50: 13.9 µM (active)
[23]
  IC50: 2.71 µM (active)
[24]
  IC50: 3.26 µM (active)
[25]
  EC50: 23 µM (inactive)

## CCOc1ccc(/C=C/C(=O)Nc2ccc(OC)cc2[N+](=O)[O-])cc1
[26]
  IC50: 5.84 µM (active)
[27]
  IC50: 6.32 µM (active)
[17]
  AC50: inconclusive
[28]
  AC50: inconclusive
[29]
  AC50: 39.8 µM (inconclusive)

## CCCCSc1nc2c(=S)n(C)c(=O)n(C)c2[nH]1
[30]
  EC50: > 59.5 µM (inactive)
[31]
  EC50: > 59.5 µM (inactive)

## Cc1ccnc(-n2sc3ccccc3c2=O)n1
[32]
  IC50: 36.1 µM (inactive)
[33]
  IC50: > 100 µM (inactive)
[34]
  IC50: 15.4 µM (active)
[35]
  IC50: 17.8 µM (active)
[15]
  IC50: 4.43 µM (active)
[36]
  IC50: 11.2 µM (active)
[9]
  CC50: > 40 µM (active)
[16]
  IC50: 65.9 µM (active)
[37]
  IC50: 12.5 µM (active)
